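These data come from cells grown in 96-well plates and exposed to compound for 48 hours at five concentrations. GI50 is the concentration that inhibits growth by half.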 Calls of active or inactive are those of the source. No stated cut-off is given here; in the data, active = GI50 up to about 1.1 µM and inactive = higher.
Assays:
Test in all cases: inhibition of tumour cell growth, NCI panel, 48 h
HCT-15 = tested on: HCT-15
OVCAR-8 = tested on: OVCAR-8
SF-539 = tested on: SF-539
HOP-62 = tested on: HOP-62
A549 = tested on: A549
LOX IMVI = tested on: LOX IMVI
SNB-75 = tested on: SNB-75
NCI-H23 = tested on: NCI-H23
M14 = tested on: M14
SK-MEL-28 = tested on: SK-MEL-28
SW-620 = tested on: SW-620
HCT-116 = tested on: HCT-116
HOP-92 = tested on: HOP-92
SF-295 = tested on: SF-295
K562 = tested on: K562
SR = tested on: SR
MDA-MB-435 = tested on: MDA-MB-435
NCI/ADR-RES = tested on: NCI/ADR-RES

Compound	GI50 (HCT-15) [µM]	GI50 (OVCAR-8)	GI50 (SF-539)	GI50 (HOP-62)	GI50 (A549)	GI50 (LOX IMVI)	GI50 (SNB-75)	GI50 (NCI-H23)	GI50 (M14)	GI50 (SK-MEL-28)	GI50 (SW-620)	GI50 (HCT-116)	GI50 (HOP-92)	GI50 (SF-295)	GI50 (K562)	GI50 (SR)	GI50 (MDA-MB-435)	GI50 (NCI/ADR-RES)
CCOC(=O)C(c1ccsc1)P(=O)(OCC)OCC (stereo not given)	15	16.6 µM (inactive)	14.2 µM (inactive)	28.1 µM (inactive)	22.4 µM (inactive)	6.5 µM (inactive)	24.1 µM (inactive)	16 µM (inactive)	12.9 µM (inactive)	15.1 µM (inactive)	15.4 µM (inactive)	11.5 µM (inactive)	24.3 µM (inactive)	17.3 µM (inactive)				
COC(=O)CCC(=O)NC1C2CC3CC(C2)CC1C3 (stereo not given)	> 100	> 100 µM (inactive)	> 100 µM (inactive)	> 100 µM (inactive)	> 100 µM (inactive)	> 100 µM (inactive)	> 43.1 µM (inactive)	> 100 µM (inactive)	> 100 µM (inactive)	> 100 µM (inactive)	> 100 µM (inactive)	> 100 µM (inactive)	> 100 µM (inactive)	> 100 µM (inactive)	> 100 µM (inactive)			
Clc1ccc(-c2nnc3c4nnc(-c5ccc(Cl)cc5Cl)n4c4ccccc4n23)c(Cl)c1	> 100	> 100 µM (inactive)	> 100 µM (inactive)	> 100 µM (inactive)	> 100 µM (inactive)	> 100 µM (inactive)	26.5 µM (inactive)	> 100 µM (inactive)	> 100 µM (inactive)	> 100 µM (inactive)	> 100 µM (inactive)	> 100 µM (inactive)	92.3 µM (inactive)	> 100 µM (inactive)	> 100 µM (inactive)			
Cc1c2ccccc2cc2ccc3oc([N+](=O)[O-])cc3c12	> 100	> 100 µM (inactive)	> 100 µM (inactive)	> 100 µM (inactive)	> 100 µM (inactive)	> 100 µM (inactive)	> 100 µM (inactive)		4.46 µM (inactive)		> 100 µM (inactive)	> 100 µM (inactive)	> 100 µM (inactive)	> 100 µM (inactive)	> 100 µM (inactive)			
CC(C)=CCC/C(C)=C/Cc1c(O)c(C)cc2c1[nH]c1cc(O)ccc12	> 25	> 25 µM (inactive)	> 25 µM (inactive)	> 25 µM (inactive)	> 25 µM (inactive)	> 25 µM (inactive)			> 25 µM (inactive)	> 25 µM (inactive)	> 25 µM (inactive)	> 25 µM (inactive)	> 25 µM (inactive)		> 25 µM (inactive)	> 25 µM (inactive)		
N#CC(C(=O)C(=O)Nc1ccc(Cl)cc1)c1ccccc1 (stereo not given)	> 100		> 100 µM (inactive)	85.1 µM (inactive)	> 100 µM (inactive)	> 100 µM (inactive)	> 100 µM (inactive)	> 100 µM (inactive)	> 100 µM (inactive)	> 100 µM (inactive)	> 100 µM (inactive)	> 100 µM (inactive)	> 100 µM (inactive)	> 100 µM (inactive)	> 100 µM (inactive)	> 100 µM (inactive)		
COc1ccc(/C=C2\N=C(c3ccccc3)OC2=O)c(OCc2ccccc2)c1		22.9 µM (inactive)	24 µM (inactive)	20.5 µM (inactive)	41.5 µM (inactive)	39.3 µM (inactive)			49.7 µM (inactive)	> 100 µM (inactive)	> 100 µM (inactive)	49.3 µM (inactive)		17.9 µM (inactive)	32.1 µM (inactive)	21.7 µM (inactive)		
O=C(Cc1nc2ccccc2o1)C(=O)Nc1cccc(Cl)c1	> 100	> 100 µM (inactive)	> 100 µM (inactive)	> 100 µM (inactive)	> 100 µM (inactive)		> 100 µM (inactive)	> 100 µM (inactive)	> 100 µM (inactive)	> 100 µM (inactive)	> 100 µM (inactive)	> 100 µM (inactive)	> 100 µM (inactive)	> 100 µM (inactive)	> 100 µM (inactive)	> 100 µM (inactive)		
CN(C)CCCn1cnc2ncccc2c1=O		> 100 µM (inactive)	> 100 µM (inactive)	> 100 µM (inactive)	> 100 µM (inactive)	> 100 µM (inactive)	> 100 µM (inactive)	> 100 µM (inactive)	> 100 µM (inactive)	> 100 µM (inactive)	> 100 µM (inactive)	> 100 µM (inactive)	> 100 µM (inactive)	> 100 µM (inactive)	> 100 µM (inactive)	> 100 µM (inactive)		
CC1(C)CC(=O)C(/C(=N/NC(=S)NN)C(=O)Nc2nc3ccc([N+](=O)[O-])cc3s2)C(=O)C1	> 100	> 100 µM (inactive)	> 100 µM (inactive)	> 100 µM (inactive)	> 100 µM (inactive)	> 100 µM (inactive)	> 100 µM (inactive)	> 100 µM (inactive)	> 100 µM (inactive)	> 100 µM (inactive)	> 100 µM (inactive)	> 100 µM (inactive)	> 100 µM (inactive)	> 100 µM (inactive)	62.1 µM (inactive)	> 100 µM (inactive)		
CC(Oc1ccc(OCC2CCCCC2)cc1)C(N)=O (stereo not given)	> 100	> 100 µM (inactive)	> 100 µM (inactive)		> 100 µM (inactive)	> 100 µM (inactive)	> 100 µM (inactive)	> 100 µM (inactive)	> 100 µM (inactive)	> 100 µM (inactive)	> 100 µM (inactive)	> 100 µM (inactive)		> 100 µM (inactive)	> 100 µM (inactive)			
CC(C)CC(=O)CC(C)[C@]1(CCCOCc2ccccc2)C(=O)N2CCC3(C[C@@]24CCC[C@H]41)OCCO3 (stereo not given in full)	> 10	> 10 µM (inactive)	> 10 µM (inactive)	> 10 µM (inactive)				> 10 µM (inactive)	> 10 µM (inactive)		> 10 µM (inactive)		> 10 µM (inactive)	> 10 µM (inactive)	> 10 µM (inactive)	> 10 µM (inactive)	> 10 µM (inactive)	> 10 µM (inactive)
O=C(C/C(=N\NC(=O)C[n+]1ccccc1)C(=O)Nc1nc2ccc([N+](=O)[O-])cc2s1)CC(c1ccccc1)c1c(O)c2ccccc2oc1=O (stereo not given)		> 100 µM (inactive)	> 100 µM (inactive)	> 100 µM (inactive)	> 100 µM (inactive)			> 100 µM (inactive)	> 100 µM (inactive)	> 100 µM (inactive)	> 100 µM (inactive)	> 100 µM (inactive)	> 100 µM (inactive)	> 100 µM (inactive)	> 100 µM (inactive)	> 100 µM (inactive)		
CC1=C(C(=O)Nc2cc(F)c(F)cc2F)C(c2ccc([N+](=O)[O-])cc2)C(C(=O)Nc2cc(F)c(F)cc2F)=C(C)N1		33.8 µM (inactive)	29.3 µM (inactive)	19.6 µM (inactive)	37.8 µM (inactive)	80.2 µM (inactive)	8.26 µM (inactive)	31.8 µM (inactive)	54.2 µM (inactive)	42.7 µM (inactive)	48.2 µM (inactive)	25.8 µM (inactive)	12.8 µM (inactive)	56.1 µM (inactive)	24.2 µM (inactive)			
Cc1ccc(C(=O)CC2(O)C(=O)Nc3c(C)cc(Cl)cc32)cc1 (stereo not given)	> 100	> 100 µM (inactive)		> 100 µM (inactive)	> 100 µM (inactive)	> 100 µM (inactive)	47.9 µM (inactive)	> 100 µM (inactive)	> 100 µM (inactive)	> 100 µM (inactive)	> 100 µM (inactive)		> 100 µM (inactive)	> 100 µM (inactive)	86.5 µM (inactive)			
O=C1CCC(=O)C12CCc1ccccc12	> 100	> 100 µM (inactive)		> 100 µM (inactive)	> 100 µM (inactive)	> 100 µM (inactive)	> 100 µM (inactive)	> 100 µM (inactive)	> 100 µM (inactive)	> 100 µM (inactive)	> 100 µM (inactive)		> 100 µM (inactive)	> 100 µM (inactive)	> 10 µM (inactive)			
CCOC(=O)C(Cc1c(C=O)[nH]c2ccccc12)(NC(=O)c1ccccc1)C(=O)OCC	6.7	19.1 µM (inactive)	16.3 µM (inactive)		19.1 µM (inactive)			13.7 µM (inactive)	17 µM (inactive)	16.9 µM (inactive)	14.2 µM (inactive)		11.7 µM (inactive)	14.4 µM (inactive)	6.46 µM (inactive)	> 100 µM (inactive)		
O=C(/C=C/c1ccc(O)c(O)c1)OC1C[C@@](O)(C(=O)O)C[C@@H](O)[C@H]1OC(=O)/C=C/c1ccc(O)c(O)c1 (stereo not given in full)	> 100	> 100 µM (inactive)	> 100 µM (inactive)	> 100 µM (inactive)	> 100 µM (inactive)	> 100 µM (inactive)		> 100 µM (inactive)	> 100 µM (inactive)	> 100 µM (inactive)	> 100 µM (inactive)	> 100 µM (inactive)	> 100 µM (inactive)	> 100 µM (inactive)	> 100 µM (inactive)	> 100 µM (inactive)		
COC(=O)C1=Cc2cc3c(cc2[C@H](c2ccc4c(c2)OCO4)C1C(=O)OC)OCO3 (stereo not given in full)	> 100	> 100 µM (inactive)	> 100 µM (inactive)	> 100 µM (inactive)	> 100 µM (inactive)	> 100 µM (inactive)	44.8 µM (inactive)	> 100 µM (inactive)	68.1 µM (inactive)	> 100 µM (inactive)	71.3 µM (inactive)	41.7 µM (inactive)	27.4 µM (inactive)	38.5 µM (inactive)	53.5 µM (inactive)	59.4 µM (inactive)		

From ChEMBL document CHEMBL1201862, “PubChem BioAssay data set” (2004)
